Test results published in patent US8986733B2, “Materials and methods for nerve repair” (University of Florida Research Foundation, Inc., priority 2001, dated 2015).

Columns and labels:
Assay type in all cases: in vivo
rat sciatic nerve [1] = test: Interpositional acellular nerve grafting, GAP-43 axon scoring
Source text: Preparation of acellular nerve grafts treated with chondroitinase. Adult (180-200 g) female SPRAGUE DAWLEY rats (HARLAN, Indianapolis, Ind.) were used as nerve donors and recipient hosts. Donor rats were anesthetized with halothane and decapitated. Sciatic nerves were exposed through a gluteal muscle-splitting incision and isolated free of underlying fascia. A 15-mm nerve segment was excised rostral to the bifurcation into common peroneal and tibial nerves. The segments were rinsed with cold sterile Ringer's solution, stabilized by pinning the ends to a thin plastic support, and transferred to a cryogenic vial. The vials were submerged in liquid nitrogen for 2 minutes and then transferred to a 37° C. water bath for 2 minutes. This freeze/thaw cycle was repeated, yielding acellular nerve grafts that were then stored in liquid nitrogen. On the day before grafting, the nerve grafts were warmed to room temperature and incubated in 100 μl phosphate buffered saline pH 7.4 (PBS) containing 2 units/ml chondroitinase ABC (SIGMA, St. Louis, Mo.) or in PBS (vehicle) only for 16 hours at 37° C. The grafts were rinsed twice with Ringer's and kept on ice prior to use. The chondroitinase ABC preparation was highly purified and stated by the manufacturer to be essentially free of protease activity.
Interpositional nerve grafting for chondroitinase experiments. Twelve rats received bilateral acellular nerve grafts, one chondroitinase-treated and one vehicle-treated graft. Host rats were deeply anesthetized using xylazine (15 mg/kg, i.m.) and ketamine (110 mg/kg, i.p.). The sciatic nerve was exposed and supported by a plastic insert placed between the nerve and underlying tissue. The region of nerve halfway between the sciatic notch and bifurcation was first coated with fibrin glue. […]
The main grafts were sectioned serially on the transverse plane in recorded measure to assess the extent of axonal growth by microscopy. […] GAP-43-positive axon profiles were scored using IMAGE-PRO PLUS software (MEDIA CYBERNETICS, Silver Springs, Md.). […]

rat sciatic nerve [2] = test: Bilateral sciatic nerve transection (neurotmesis) and neurorrhaphic repair, GAP-43 axon scoring; details: for axon regeneration / ingress into the distal segment vs vehicle-treated controls: 4 days after transection and repair
Experimental: Surgical procedures for nerve transection and nerve crush experiments. All surgical procedures were performed according to Institutional Animal Care and Use Committee (IACUC) approved protocols. Young adult SPRAGUE DAWLEY rats (HARLAN Indianapolis, Ind.) were deeply anesthetized with xylazine (15 mg/kg, i.m.) followed by ketamine-HCl (110 mg/kg, i.p.). Six animals received bilateral nerve crush injuries. Sciatic nerves were exposed and then crushed with firm pressure for thirty seconds with a DUMONT #5 forceps at a site 4 mm distal to the tendon of the internal obdurator. The crush site was marked with an epineurial suture. In a separate set of experiments, eight rats received bilateral sciatic nerve transection injuries using serrated scissors. The proximal and distal stumps were […] by epineurial neurorrhaphy using 9-0 ETHILON sutures. Fibrin glue (fibrinogen and thrombin) was then applied to stabilize the union. In both injury models, the right sciatic nerves were injected 2-mm distal to the injury with chondroitinase ABC (1 U in 2 μl) (high-purity, protease-free; SIGMA CHEMICAL CO., St. Louis, […].). Left sciatic nerves (with the same injury as the right side) were injected with vehicle alone (0.1% bovine serum albumin in PBS). Muscle incisions were sutured and the skin closed with metal clips. After recovery from the anesthetic, animals were returned to standard housing. Two days (for crush injury) and four days (for transection injury) after surgery, nerves were removed under anesthesia and fixed as described below. One of the eight animals receiving nerve transection and repair was excluded because loss of continuity in one nerve occurred during convalescence.
The hypothesis that chondroitinase treatment improves axonal growth through the site of nerve coaptation was tested. Bilateral neurotmesis was achieved by a scissor cut of the sciatic nerves which were then repaired by epineurial suture and fibrin glue. One nerve was injected with chondroitinase ABC and the contralateral nerve received vehicle alone. Because of the latency of regeneration after nerve transection, axonal growth across the coaptation was examined four days after injury. In control nerves, the ingress of axons occurred mainly in patches and was limited to discrete subsections of the distal nerve; otherwise only a few axons were found scattered throughout the remaining nerve cross-section, as shown in FIG. 14A. The number of axons extending farther into the distal (after 4 days) rapidly diminished and approached zero within 3 mm from the coaptation. In contrast, axon ingress into chondroitinase-treated nerves was more robust and widespread throughout the entire nerve cross-section. In 7/7 animals, the number of axons that entered the distal nerve was greater in the chondroitinase-treated nerve than in the control nerve. […] It was clear that axon growth in all portions of the distal nerve was strictly linear and aligned with the longitudinal axis of the nerve.

rat sciatic nerve [3] = test: Human-to-rat acellular nerve xenograft model, GAP-43 axon scoring; details: 8-day acellular human nerve xenografts in rat
Source text: Human nerve fascicles (of similar diameter to the rat sciatic nerve) were grafted into a gap made in the rat sciatic nerve. Serial sections of the 8-day interpositional nerve xenografts were scored for GAP-43-labeled axonal profiles by digital image analysis. Data represent the means (−SEM) of 2 vehicle-treated and 2 chondroitinase-treated grafts assessed at the specified distances into the graft (proximal to distal).
In the following experiments, the hypothesis that chondroitinase treatment improves nerve regeneration through acellular human nerve grafts in a rat xenograft model was tested. Subunits (individual fascicles) taken from human nerves were treated en bloc with vehicle or chondroitinase ABC. Ten-mm interpositional nerve grafts were joined to the rat host sciatic nerve by epineurial neurorrhaphy reinforced with fibrin glue. Each of 2 host rats received bilateral grafts, one vehicle-treated and one chondroitinase-treated graft. Regeneration was initially examined after 8 days. Axonal growth was assessed at specified spatial intervals within the graft by scoring GAP-43-immunopositive profiles in transverse sections.

chondroitinase ABC
latency of axonal regeneration into acellular nerve grafts (rat sciatic nerve [1]; 4-day and 8-day grafts): decreases the latency
axonal penetration vs control grafts (rat sciatic nerve [1]; 4-day grafts, 0.3 mm from the host-graft interface): five-fold greater
average number of axons (GAP-43-immunopositive profiles) entering grafts vs control grafts (rat sciatic nerve [1]; 8-day grafts, en bloc treated acellular syngrafts): more than three-fold greater
animals in which number of axons entering distal nerve was greater than in control nerve (rat sciatic nerve [2]; 4 days after injury): 7/7
increase in axon score immediately distal to coaptation in 3/7 animals (rat sciatic nerve [2]; 4 days after injury, 3/7 animals): greater than 3.5 fold
score of axons immediately distal to the coaptation vs control (rat sciatic nerve [2]; 4 days after injury, average): two-fold greater
axon regeneration / ingress into the distal segment vs vehicle-treated controls (rat sciatic nerve [2]): significantly greater
axon regeneration / ingress into the distal segment vs vehicle-treated controls (rat sciatic nerve [2]; listed as chondroitinase): increased several-fold
average number of axons (GAP-43-immunopositive profiles) entering grafts vs control grafts (rat sciatic nerve [3]): more than three-fold greater
